Publication PMC3430861, “The pharmacological profile of ELIC, a prokaryotic GABA-gated receptor” (Neuropharmacology, 2012)
Read-outs that look alike come from different tables or passages of the source.

How the values were obtained:
ELIC [1] = target: T1, ELIC (Dickeya chrysanthemi, UniProt P0C7B7, INS163G); test: cell-based; assay type: cell-based, Erwinia chrysanthemi
T1 construct: expressed in transfected cells; host or cells: Xenopus laevis oocytes injected with cRNA
Experimental: Xenopus laevis oocyte-positive females were purchased from NASCO (Fort Atkinson, Wisconsin, USA) and maintained according to standard methods.
(§1) The ELIC sequence (Genbank accession number POC7B7) was purchased from Genscript as a synthetic gene with optimized codon usage for expression in Escherichia coli. […] Stage V and VI oocytes were injected with 20 ng cRNA, and currents recorded 1–3 days post-injection.

[2] = target: RDL, a GABA-activated insect receptor; parameters: method as in McGonigle and Lummis, 2010; conditions: RDL; ref McGonigle and Lummis, 2010; cited from earlier work
ELIC [3] = target: T2, ELIC (Dickeya chrysanthemi, UniProt P0C7B7); test: cell-based; assay type: cell-based, Erwinia chrysanthemi
T2 sequence (P0C7B7 8-321): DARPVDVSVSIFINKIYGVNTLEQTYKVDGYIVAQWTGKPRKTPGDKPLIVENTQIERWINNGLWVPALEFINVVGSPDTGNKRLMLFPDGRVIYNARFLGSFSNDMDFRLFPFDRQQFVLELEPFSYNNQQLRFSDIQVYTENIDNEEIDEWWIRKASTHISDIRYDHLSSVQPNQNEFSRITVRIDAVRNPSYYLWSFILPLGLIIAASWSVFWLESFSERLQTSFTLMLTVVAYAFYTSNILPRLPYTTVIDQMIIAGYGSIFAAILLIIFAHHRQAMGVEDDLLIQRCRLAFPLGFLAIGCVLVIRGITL
Experimental: Xenopus laevis oocyte-positive females were purchased from NASCO (Fort Atkinson, Wisconsin, USA) and maintained according to standard methods. Harvested stage V–VI Xenopus oocytes were washed in four changes of ND96 (96 mM NaCl, 2 mM KCl, 1 mM MgCl2, 5 mM HEPES, pH 7.5), de-folliculated in 1.5 mg ml^−1 collagenase Type 1A for approximately 2 h, washed again in four changes of ND96 and stored in ND96 containing 2.5 mM sodium pyruvate, […], 0.7 mM theophylline.
as §1

GLIC = system: GLIC; parameters: method as in Alqazzaz et al., 2011; conditions: ref Alqazzaz et al., 2011, cited from earlier work; for inhibition of GLIC (yes/no): comparison ELIC vs GLIC
[4] = 10 mM, read-out: pEC50 (EC50): agonist effect at the concentration shown (converted)
[5] = 1 mM, read-out: pEC50 (EC50): agonist effect at the concentration shown (converted)
[6] = Hill coefficient of inhibition curve

## NCCCP(=O)(O)O [3-aminophosphonic acid]
ELIC [1]; 100 mM
  effect on ELIC (agonist test): no effect
ELIC [1]; 100 mM, read-out: pEC50 (EC50): agonist effect at the concentration shown (converted)
  EC50: > 10000 µM

## O=C(O)Cc1c[nH]c2ccccc12 [3-indole acetic acid]
ELIC [1]; 10 mM
  effect on ELIC (agonist test): no effect
ELIC [1]; [4]
  EC50: > 10000 µM

## NCCc1c[nH]c2ccc(O)cc12 [5-HT]
ELIC [1]; [5]
  EC50: > 10000 µM
ELIC [1]; 10 mM
  effect on ELIC (agonist test): no ELIC responses

## NCCCCC(=O)O [5-aminovaleric acid]
ELIC [1]
  concentration required to activate ELIC: > 10 mM
[2]
  EC50: 1100 µM
  Rmax: 0.85

## Oc1ccc2[nH]ccc2c1 [5-hydroxyindole]
ELIC [3]
  inhibition of ELIC (yes/no): inhibiting neither

## CC(=O)OCC[N+](C)(C)C [ACh]
ELIC [1]; [5]
  EC50: > 10000 µM
ELIC [1]; 10 mM
  effect on ELIC (agonist test): no ELIC responses

## C[C@H](N)C(=O)O [Alanine]
ELIC [1]; 1 mM
  effect on ELIC (agonist test): no effect

## NC12CC3CC(CC(C3)C1)C2 [Amantadine]
ELIC [3]
  inhibition of ELIC (yes/no): inhibiting both receptors
ELIC [3]; [6]
  nH: 2.5 ± 0.4
ELIC [3]; IC50
  IC50: 370 µM
ELIC [3]; pIC50 (Mean ± SEM)
  IC50: 372 µM
GLIC
  inhibition of GLIC (yes/no): inhibiting both receptors

## N=C(N)NCCC[C@H](N)C(=O)O [Arginine]
ELIC [1]; 1 mM
  effect on ELIC (agonist test): no effect

## NC(=O)C[C@H](N)C(=O)O [Asparagine]
ELIC [1]; 1 mM
  effect on ELIC (agonist test): no effect

## N[C@@H](CC(=O)O)C(=O)O [Aspartate]
ELIC [1]; 1 mM
  effect on ELIC (agonist test): no effect

## CN1CCc2cc3c(cc2[C@H]1[C@@H]1OC(=O)c2c1ccc1c2OCO1)OCO3 [Bicuculline]
ELIC [3]; 100 μM
  effect when co-applied in the presence of GABA: no effect
ELIC [3]; wild type ELIC, at the GABA EC50 (1.6 mM)
  pIC50: no inhibition: NI* (no inhibition at 100 μM)

## CC(C)(C)[C@]1(O)CC2OC(=O)CC23C(=O)OC2OC(=O)[C@H](O)C231 (stereo partly drawn) [Bilobalide]
ELIC [3]; [6]
  nH: 1.3 ± 0.2
ELIC [3]; IC50, wild type ELIC, at the GABA EC50 (1.6 mM)
  IC50: 330 µM
ELIC [3]; pIC50 (Mean ± SEM), wild type ELIC, at the GABA EC50 (1.6 mM)
  IC50: 331 µM

## CN(C)CCCN1c2ccccc2Sc2ccc(Cl)cc21 [Chlorpromazine]
ELIC [3]
  inhibition of ELIC (yes/no): inhibiting both receptors
  nH: 1.2 ± 0.4
ELIC [3]; IC50
  IC50: 230 µM
ELIC [3]; pIC50 (Mean ± SEM)
  IC50: 229 µM
GLIC
  inhibition of GLIC (yes/no): inhibiting both receptors

## N[C@@H](CS)C(=O)O [Cysteine]
ELIC [1]; 1 mM
  effect on ELIC (agonist test): no effect

## C[C@@H]1C[C@H]2[C@@H]3CCC4=CC(=O)C=C[C@]4(C)[C@@]3(F)[C@@H](O)C[C@]2(C)[C@@]1(O)C(=O)CO [Dexamethasone]
ELIC [3]; comparison ELIC vs GLIC
  inhibition of ELIC (yes/no): inhibiting neither

## ClC1=C(Cl)[C@]2(Cl)[C@@H]3[C@@H]4C[C@@H]([C@H]5O[C@@H]45)[C@@H]3[C@@]1(Cl)C2(Cl)Cl [Dieldrin]
ELIC [3]
  nH: 1.1 ± 0.1
ELIC [3]; IC50
  IC50: 66 µM
ELIC [3]; pIC50 (Mean ± SEM)
  IC50: 66.1 µM

## N#Cc1nn(-c2c(Cl)cc(C(F)(F)F)cc2Cl)c(N)c1[S+]([O-])C(F)(F)F (stereo not drawn) [Fipronil]
ELIC [3]
  inhibition of ELIC (yes/no): inhibiting both receptors
  nH: 1.8 ± 0.4
ELIC [3]; IC50
  IC50: 350 µM
ELIC [3]; pIC50 (Mean ± SEM)
  IC50: 347 ± 4.01 µM
GLIC
  inhibition of GLIC (yes/no): inhibiting both receptors

## NCCCC(=O)O [GABA]
ELIC [1]; wild type ELIC, agonist concentration-response
  Hill Slope: 2.1 ± 0.6
ELIC [1]; wild type ELIC, oocytes clamped at −60 mV
  pEC50: 2.78 ± 0.04
ELIC [1]; wild type ELIC, oocytes clamped at −60 mV, read-out: EC50 (converted)
  EC50: 1600 µM

## COc1ccc(-c2ccc(=N)n(CCCC(=O)O)n2)cc1 [Gabazine (SR-95531), Gabazine]
ELIC [3]
  effect when co-applied in the presence of GABA: no effect

## NC(=O)CC[C@H](N)C(=O)O [Glutamine]
ELIC [1]; 1 mM
  effect on ELIC (agonist test): no effect
ELIC [3]
  effect when co-applied in the presence of GABA: no effect

## NCC(=O)O [Glycine]
ELIC [1]; [5]
  EC50: > 10000 µM
ELIC [1]; 10 mM
  effect on ELIC (agonist test): no ELIC responses
ELIC [1]; [4]
  EC50: > 10000 µM

## N[C@@H](Cc1c[nH]cn1)C(=O)O [Histidine]
ELIC [1]; 1 mM
  effect on ELIC (agonist test): no effect
ELIC [3]
  effect when co-applied in the presence of GABA: no effect

## O=[N+]([O-])NC1=NCCN1Cc1ccc(Cl)nc1 [Imidaclopride]
ELIC [3]
  inhibition of ELIC (yes/no): inhibiting neither

## CC[C@H](C)[C@H](N)C(=O)O [Isoleucine]
ELIC [1]; 1 mM
  effect on ELIC (agonist test): no effect

## N[C@@H](CCC(=O)O)C(=O)O [L-glutamate]
ELIC [1]; 1 mM
  effect on ELIC (agonist test): no effect
ELIC [1]; 10 mM
  effect on ELIC (agonist test): did not activate ELIC

## CC(C)C[C@H](N)C(=O)O [Leucine]
ELIC [1]; 1 mM
  effect on ELIC (agonist test): no effect

## NCCCC[C@H](N)C(=O)O [Lysine]
ELIC [1]; 1 mM
  effect on ELIC (agonist test): no effect

## CSCC[C@H](N)C(=O)O [Methionine]
ELIC [1]; 1 mM
  effect on ELIC (agonist test): no effect

## CC(=O)O[C@H]1C[C@@H]2CC[C@@H]3[C@H](CC[C@@]4(C)[C@H]3C[C@H]([N+]3(C)CCCCC3)[C@@H]4OC(C)=O)[C@@]2(C)C[C@@H]1[N+]1(C)CCCCC1 [Pancuronium]
ELIC [3]
  pIC50: no inhibition: NI (key: NI: no inhibition at 10 mM; NI*: no inhibition at 100 μM)

## N[C@@H](Cc1ccccc1)C(=O)O [Phenylalanine]
ELIC [1]; 1 mM
  effect on ELIC (agonist test): no effect

## CCCC(C(=O)OCCN(CC)CC)(c1ccccc1)c1ccccc1 [Proadifen]
ELIC [3]
  nH: 2.9 ± 0.6
  pIC50 (Mean ± SEM): 5.09 ± 0.04
ELIC [3]; IC50
  IC50: < 20 µM
ELIC [3]; read-out: IC50
  IC50: 8.1 µM

## CC(=O)[C@H]1CC[C@H]2[C@@H]3CCC4=CC(=O)CC[C@]4(C)[C@H]3CC[C@]12C [Progesterone]
ELIC [3]
  nH: 1.8 ± 0.58
ELIC [3]; IC50
  IC50: 150 µM
ELIC [3]; pIC50 (Mean ± SEM)
  IC50: 151 µM

## O=C(O)[C@@H]1CCCN1 [Proline]
ELIC [1]; 1 mM
  effect on ELIC (agonist test): no effect
ELIC [3]
  effect when co-applied in the presence of GABA: no effect

## Cc1cccc(C)c1N=C([O-])C[N+](C)(C)C.Cl [QX-222]
ELIC [3]
  inhibition of ELIC (yes/no): inhibiting neither
  pIC50: no inhibition: NI (key: NI: no inhibition at 10 mM; NI*: no inhibition at 100 μM)

## N[C@@H](CO)C(=O)O [Serine]
ELIC [1]; 1 mM
  effect on ELIC (agonist test): no effect

## C[C@@H](O)[C@H](N)C(=O)O [Threonine]
ELIC [1]; 1 mM
  effect on ELIC (agonist test): no effect

## N[C@@H](Cc1c[nH]c2ccccc12)C(=O)O [Tryptophan]
ELIC [1]; 1 mM
  effect on ELIC (agonist test): no effect

## N[C@@H](Cc1ccc(O)cc1)C(=O)O [Tyrosine]
ELIC [1]; 1 mM
  effect on ELIC (agonist test): no effect
ELIC [3]
  effect when co-applied in the presence of GABA: no effect

## CC(C)[C@H](N)C(=O)O [Valine]
ELIC [1]; 1 mM
  effect on ELIC (agonist test): no effect

## NCc1cc(=O)[nH]o1 [muscimol]
ELIC [1]; 30 μM
  effect on ELIC (agonist test): no effect

## O=C(O)[C@@H]1CCC(O)=N1 [pyroglutamate]
ELIC [1]; 10 mM
  effect on ELIC (agonist test): did not activate ELIC

## O=C([O-])CCC(=O)[O-].[Na+].[Na+] [sodium succinate]
ELIC [1]; 10 mM
  effect on ELIC (agonist test): did not activate ELIC
ELIC [1]; [4]
  EC50: > 10000 µM

## O=C(O)CCC(=O)O [succinic acid]
ELIC [1]; 10 mM
  effect on ELIC (agonist test): did not activate ELIC

## CC[N+](CC)(CC)CC [tetraethylammonium]
ELIC [3]; read-out: IC50
  IC50: ~20000 µM

## C[N+](C)(C)C [tetramethylammonium]
ELIC [3]; read-out: IC50
  IC50: ~20000 µM

## CCC(N)C(=O)O (stereo not drawn) [α-aminobutyrate]
ELIC [1]; 10 mM
  effect on ELIC (agonist test): did not activate ELIC
ELIC [1]; [4]
  EC50: > 10000 µM

## O=S1OC[C@@H]2[C@H](CO1)[C@@]1(Cl)C(Cl)=C(Cl)[C@]2(Cl)C1(Cl)Cl (stereo partly drawn) [α-endosulfan]
ELIC [3]
  nH: 0.7 ± 0.2
ELIC [3]; IC50
  IC50: 17 µM
ELIC [3]; pIC50 (Mean ± SEM)
  IC50: 17 µM
GLIC; GLIC
  IC50: 17 µM

## O=C(O)CCC(=O)C(=O)O [α-ketoglutarate]
ELIC [1]; 10 mM
  effect on ELIC (agonist test): did not activate ELIC
ELIC [1]; [4]
  EC50: > 10000 µM

## NCCC(=O)O [β-alanine]
ELIC [1]; 10 mM
  effect on ELIC (agonist test): no effect

## O=C1CCCO1 [γ-butyrolactone]
ELIC [1]; 10 mM
  effect on ELIC (agonist test): did not activate ELIC

## Ivermectin
ELIC [3]
  inhibition of ELIC (yes/no): inhibiting neither
  pIC50: no inhibition: NI (key: NI: no inhibition at 10 mM; NI*: no inhibition at 100 μM)

## α-amino hydroxbutyric acid
ELIC [1]; 10 mM
  effect on ELIC (agonist test): no effect
ELIC [1]; [4]
  EC50: > 10000 µM
